Assay results: publication PMC7876106 (Scientific Reports, 2021)

Tests used:
[1] = molecular target: TERRA; test: FP assay, compound binding to 5′ fluorescein-labeled TERRA; conditions: 10 nM fluorescein-labeled probe, 3 independent experiments
Protocol: All the nucleic acids, peptides and chemicals were dissolved in buffer containing 20 mM HEPES pH7.5, 150 mM salt (KCl, NaCl, LiCl) at the stock concentration of 1 mM. For peptide and nucleic acid interactions, 25μL of each nucleic acids with a sequential twofold dilutions starting from 50 μM was added into each well of 96-well plate followed by adding 25μL of 10 nM FITC labeled TRF2 peptide. For compounds and nucleic acid interactions, 20μL of each compounds with a sequential twofold dilutions starting from 50 μM were added into each well of 96-well plate followed by adding 5μL of 20 ng/mL tRNA and 25μL of 10 nM FAM labeled nucleic acids. For inhibition assay, 5μL FITC labeled TRF2 GAR peptide (10 nM final concentration) and 10 μL oligos (5 μM final concentration) were mixed, followed by adding 5μL of each compound with a sequential twofold dilutions starting from 50 μM into each well of 384-well plate. All components were mixed thoroughly, and the plate was incubated at room temperature for 1 h before placing in an Envision Plate Reader for reading at 495/520 nm. All data curves were fitted using Prism 8.0.

[2] = tested on: TeloDNA (HTRF assay) (DNA, G4) TTAGGGTTAGGGTTAGGGTTAGGG; test: HTRF, disruption of TRF2 peptide complex; conditions: TRF2 GAR peptide displaced
[3] = tested on: TERRA antisense (5'-fluorescein) (RNA, single strand) CCCUAACCCUAACCCUAACCCUAA; test: fluorescence polarization; conditions: 150 mM salt (KCl, NaCl or LiCl; which not stated); 20 mM HEPES pH 7.5, room temperature, tRNA competitor; dilutions from 50 μM compound
[4] = tested on: TeloDNA (5'-fluorescein) (DNA, G4) TTAGGGTTAGGGTTAGGGTTAGGG; test: fluorescence polarization; conditions: 150 mM KCl, NaCl or LiCl (salt not specified); 20 mM HEPES; 20 mM HEPES pH 7.5, room temperature, tRNA competitor added, 10 nM probe; apparent
[5] = tested on: TERRA (unlabelled) (RNA, G4) UUAGGGUUAGGGUUAGGGUUAGGG; test: circular dichroism; conditions: 150 mM KCl; 20 mM HEPES pH 7.5, 20% PEG8000, 4 °C, 10 μM RNA, mixed 1:1 molar ratio
[6] = tested on: TERRA (HTRF assay) (RNA, G4) UUAGGGUUAGGGUUAGGGUUAGGG; test: HTRF, disruption of TRF2 peptide complex; conditions: TRF2 GAR peptide displaced
[7] = tested on: TRF2-TERRA; test: HTRF assay, disruption of TERRA and TRF2 peptide interaction; format: binding; conditions: compared to BRACO-19
Protocol: Mei et al, 2020 TERRA Requires TRF2 GAR Domain
Homogenous Time Resolved Fluorescence (HTRF) assay
All material including peptide, nucleic acids and compounds were dissolved in buffer containing 20mM HEPES pH7.5 150mM KCl. To measure the direct interaction between peptide and nucleic acids, 5µL of FITC-labeled TRF2 GAR peptide was added into each 384 well with a sequential of 2-fold dilution starting from 200nM, 5µL of 10nM biotin-labeled nucleic acid was then added into the well and fixed with the peptide, 5µL of buffer was added to make each well contain 15µL solution. The plate was incubated at room temperature for 30 minutes, following by adding 5µL of streptavidin-Tb-cryptate (Cisbio, PerkinElmer) and the plate was then incubated at room temperature for another 30 minutes before measured by EnVision plate reader (330/520 nm). To measure the compound disruption on peptide and nucleic acids, 5µL of small molecule was added into each 384 well first with a sequential of 2-fold dilution starting from 5µM, followed by 5µL of 10nM nucleic acid and 100nM peptide and then the plate was incubated at room temperature for 30 minutes. The rest step was similar to the direct binding measurement assay. The curves were analyzed using Prism 8.0. […]
Total RNA was isolated as previously described by using TRIzol reagent (Invitrogen) 1. […] RNA concentration was determined by Nanodrop-2000 (ThermoFisher). […]

[8] = tested on: G4 telomere DNA; test: ChIP with BG4 antibody for G4 telomere DNA in LOX cells; format: cell-based, human; conditions: 2 μM, 2 days
Protocol: DNA ChIP assays was performed as described previously 3 with minor modifications. Briefly, 1 x 10^7 LOX cells treated with indicated chemicals (2 µM) for 48 hrs were subject to ChIP analysis and immunoprecipitated DNA was assayed by DNA dot-blot using 32P-labeled (TTAGGG)4 or Alu probe. […]

Compound	EC50 [1]	IC50 [2]	binding [3]	EC50 [4]	binding [5]	IC50 [6]	inhibition of TRF2-TERRA by HTRF [7]	G4 telomere DNA (BG4 ChIP) relative to PP or PDS treated cells [8]
CN(C)c1ccc(Nc2c3ccc(NC(=O)CCN4CCCC4)cc3nc3cc(NC(=O)CCN4CCCC4)ccc23)cc1 [BRACO-19]	7.4 µM	0.007 ± 0.00016 µM	no	3.9 µM				
CCc1c(C)c2cc3nc(cc4nc(cc5c(CC)c(C)c(cc1[nH]2)n5C)C(C)=C4CCC(=O)O)C(CCC(=O)O)=C3C [NMM, N-methyl mesoporphyrin IX]	0.68 µM		no	4.8 µM	yes	0.0017 ± 0.0008 µM	preferential inhibition of TRF2-TERRA	significant reduction in G4 telomere DNA
